These results are taken from patent US6046228A, “Anti-viral pharmaceutical compositions containing saturated 1,2-dithiaheterocyclic compounds and uses thereof” (priority 1999, dated 2000).

As usually defined, the EC50 is the concentration at which the effect is half-maximal.

One assay relates to HIV-1RF virions. Nature of the assay: viral inactivation assay, HeLa-CD4-LTR-βgal cells. The format is cell-based. The conditions noted are these: FIG. 2(B), in words. The protocol:
HeLa-CD4-LTR-βgal cells (1.5×10^4 /well) were plated in 200 μl volume in flat bottom 96-well microtiter plates for 24 hours, after which the fluid was removed and replaced with drug-treated samples. The HIV-1RF stock was treated with various concentrations NSC 624151 for 2 hours at 37° C., followed by centrifugation (18,000×g for 1 hour at 4° C.) to remove compound from the virus, preparation of serial two-fold dilutions and plating of 200 μl of each dilution in triplicate onto the cell monolayer. The cultures were then incubated for 4 additional days, and monolayers were then fixed for 5 minutes with 2% formaldehyde/2% glutaraldehyde, washed twice with cold PBS and then stained with X-gal substrate for 24 hours at 37° C. The number of blue-stained cells (each indicating a single infectious unit) were then counted in each well and the number of infectious units per ml (mean±SD) of sample were determined values calculated.

Another assay deals with T1, HIV-1 p66-p51 RT (Human immunodeficiency virus type 1 group M subtype B, UniProt P04585).
T1 construct: the purified HIV-1 p66-p51 RT enzyme
The assay is described as follows: reverse transcriptase activity assay. The assay is classed as biochemical. The conditions noted are these: for inhibition of HIV-1 RT: in words. The protocol: The effects of 624151 on the in vitro activity of purified RT was determined by measurement of incorporation of [^3 H]TTP onto the poly(rA):oligo(dT)(rAdT) or poly(rC):oligo(dG)(rCdG) homopolymer template/primer systems. Samples (5 μL) were blotted onto DE81 paper, washed with 5% dibasic sodium phosphate as previously described (Buckheit et al., Antiviral Res. 21:247, (1993)), and then quantitated on a Packard Matrix 9600 dual beam counter. 3'-Azido-3'-deoxythymidine-5 '-triphosphateand UC38 (NSC 629243) served as positive controls for inhibition of RT. HIV-1 protease activity was quantitated by a reversed phase HPLC assay utilizing the […]Amide substrate (Multiple Peptide Systems, San Diego, Calif.) as previously described in Rice et al. (Proc. Nat'l. Academy of Science USA 9: 9721-9724, (1993)).

Assay [1] deals with HIV-1RF. The assay is described as follows: effect of increasing multiplicity of infection, CEM-SS cells. The note with it: for EC50: Human immunodeficiency virus 1, CEM-SS. The assay is classed as cell-based. Here is the method:
(§1) Initial anti-HIV screening was performed with CEM-SS cells and HIV-1RFusing the XTT cytoprotection assay as previously described (Weislow et al., J. National Cancer Inst. 81: 577-586, (1989)). HIV-1 isolates included common laboratory stains (RF, IIIB and MN), as well as a panel of HIV-1 clinical isolates (Cushman et al., J. Med. Chem. 37: 3040-3050, (1994)). The pyridone-resistant HIV-1A17 isolate (Nunberg et al., J. Virol., 65: 4887-4892 (1991)) was obtained from Emilio Emini at Merck Sharpe and Dohme Laboratories. Phytohemagglutinin-stimulated human peripheral blood lymphocytes (PBLs) and fresh monocyte-macrophage (Mono/MF) cultures were prepared and utilized in antiviral assays as previously described (Rice et al., Proc. Nat'l. Academy Science, USA 90: 9721-9724, (1993)); (Cushman et al., J. Med. Chem. 37: 3040-3050, (1994)). EC50 values for these cultures indicate the drug concentration that provided a 50% reduction in viral p24 production. […] The compounds can be synthesized according to the teachings of Singh et al., Sulfur Letters 8: 107-114, (1988). The 4,5-cis-dihydroxy(1,1-dioxy-1,2,-dithiohexane) compound (NSC 624151) has been abbreviated as 624151 for convenience. MT-2, MT-4, U1, HeLa-CD4-LTR-β-gal and 174xCEM cells were obtained from the AIDS Research and Reference Program (National Institute of Allergy and Infectious Disease, National Institutes of Health, Bethesda, Md. USA), as were the HIV-2MS and the AZT-resistant HIV-1G910-6 isolates.

The test system of assay [2] is HIV-1RF. Nature of the assay: XTT cytoprotection (cytopathicity) anti-HIV assay, CEM-SS cells. The assay is classed as cell-based.
In another assay the test system is HIV-1, HIV-2 and SIV. The assay is described as follows: range of antiviral action studies. The format is cell-based. The note with it: in words. Here is the method:
as §1, with “MT-2, MT-4, U1, HeLa-CD4-LTR-β-gal and 174xCEM cells were obtained from the AIDS Research and Reference Program (National Institute of Allergy and Infectious Disease, National Institutes of Health, Bethesda, Md. USA), as were the HIV-2MS and the AZT-resistant HIV-1G910-6 isolates.” left out

In the case of `O=S1(=O)C[C@H](O)[C@H](O)CS1` (relative stereo) [NSC 624151, cis-1,1-dioxo[1,2]dithiane-4,5-diol], the “inactivation of viral infectivity” value with HIV-1RF virions was “enter intact virions and inactivate the viral infectivity”; with HIV-1RF virions (listed as 624151), “concentration-dependant inactivation of viral infectivity”. Further, the “inhibition of HIV-1 RT” value against HIV-1 p66-p51 RT (rAdT template/primer) and against HIV-1 p66-p51 RT (rCdG template/primer) was “not inhibited” throughout. On HIV-1 p66-p51 RT (rAdT, read-out: RT Activity rAdT ID50), the IC50 was over 100 µM. In addition, the EC50 was determined as 8.4 µM in the assay with HIV-1RF [1] (MOI 0.01); 17.1 µM with HIV-1RF [1] (MOI 0.02); 16.8 µM with HIV-1RF [1] (MOI 0.04); 27.7 µM in the assay on HIV-1RF [1] (MOI 0.08); 21.3 µM with HIV-1RF [1] (MOI 0.16); 21 µM with HIV-1RF [1] (MOI 0.32). Also, the EC50 in the assay on HIV-1RF [2] (Human immunodeficiency virus 1, CEM-SS, CEM-SS cells, HIV-1RF, read-out: XTT Assay EC50) was 6.6 µM; in the assay with HIV-1RF [2] (Human immunodeficiency virus 1, CEM-SS, CEM-SS, RF, Table 2, read-out: EC50), 6.6 µM; with HIV-1RF [2] (Human immunodeficiency virus 1, CEM-SS, Table 5, read-out: EC50 Duplicates) it was 9.53 µM; with HIV-1RF [2] (Human immunodeficiency virus 1, CEM-SS, Table 5, read-out: EC50 Mean) it was 12.2 µM; with HIV-1RF [2] (Human immunodeficiency virus 1, CEM-SS, XTT cytopathicity assay, Table 4, read-out: Infection EC50 (Mean ± S.D., n = 6)), 7.85 ± 5.5 µM; in the assay with HIV-1RF [2] (Table 5, read-out: EC50 Duplicates) it was 14.9 µM. The “effect of increasing the MOI on activity” value in the assay on HIV-1RF [1] (in words) is “relatively resistant to the effects of increasing the viral MOI”. The “EC50 relative to enantiomer or racemate” value in the assay on HIV-1RF [2] (in words) is “the average of these EC50 s is equivalent to the EC50 for the racemic mixture”. In addition, the “inhibition of replication of laboratory and drug-resistant HIV-1 strains” value with HIV-1, HIV-2 and SIV (RF, IIIB, SK1, MN, AZT-, nevirapine-, pyridinone-, NNRTI-resistant strains) is listed as “effectively inhibited replication”. Besides, the “activity against RT mutants, clinical strains, clades, HIV-2 and SIV” value in the assay on HIV-1, HIV-2 and SIV is recorded as “active against”.
